According to patent US20230085307A1, “PYRIDAZINONE COMPOUND AND HERBICIDE” (NISSAN CHEMICAL CORPORATION, priority 2019, published 2023):

How the values were obtained:
wild oat [1] = test: Test Example 4: herbicidal effect by soil treatment (Table 19, symbol I); assay type: in vivo, wild oat (Avena fatua); details: AAH 320 g/ha
How it was run: (§1)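 Step 1: sow seeds in sterilized diluvial soil, cover ~1.5 cm. Step 2: spray diluted emulsion onto soil surface at predetermined rate. Step 3: greenhouse, 25–30° C, three weeks. Step 4: grade effect on each plant by earlier criteria.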

velvetleaf [2] = test: Test Example 4: herbicidal effect by soil treatment (Table 19, symbol M); assay type: in vivo, velvetleaf (Abutilon theophrasti); details: AAH 320 g/ha
How it was run: as §1

barnyard grass [3] = test: Test Example 3: herbicidal effect by foliage application, Wagner pot (Table 18, symbol H); assay type: in vivo, barnyard grass (Echinochloa crus-galli); details: 320 g/ha
How it was run: (§2)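 Plants were sown in alluvial soil held under 0.1–0.5 cm standing water and grown 14 days in a greenhouse at 25–30 °C. An emulsifiable formulation, water-diluted to the set dose, was then sprayed onto the foliage, and effects were scored three weeks later using previously defined criteria.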

lambsquarters [4] = test: Test Example 4: herbicidal effect by soil treatment (Table 19, symbol O); assay type: in vivo, lambsquarters (Chenopodium album); details: AAH 320 g/ha
How it was run: as §1

green foxtail [5] = test: Test Example 4: herbicidal effect by soil treatment (Table 19, symbol G); assay type: in vivo, green foxtail (Setaria viridis); details: AAH 320 g/ha
How it was run: as §1

barnyard grass [6] = test: Test Example 5: herbicidal effect by foliage application, plastic box (Table 20, symbol H); assay type: in vivo, barnyard grass (Echinochloa crus-galli); details: foliage application, AAH 320 g/ha, three weeks after application
How it was run: (§3)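 Foliar spray test: emulsion formulation diluted in water to a set application rate, sprayed onto 14-day-old plants raised in diluvial soil at 25° C to 30° C under glass. Both herbicidal effect and crop effect rated visually three weeks later.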

Italian ryegrass [7] = test: Test Example 4: herbicidal effect by soil treatment (Table 19, symbol K); assay type: in vivo, Italian ryegrass (Lolium multiflorum); details: AAH 320 g/ha
How it was run: as §1

Chinese sprangletop = test: Test Example 3: herbicidal effect by foliage application, Wagner pot (Table 18, symbol D); assay type: in vivo, chinese sprangletop (Leptochloa chinensis); details: 320 g/ha
How it was run: as §2

southern crabgrass [8] = test: Test Example 4: herbicidal effect by soil treatment (Table 19, symbol F); assay type: in vivo, southern crabgrass (Digitaria ciliaris); details: AAH 320 g/ha
How it was run: as §1

barnyard grass [9] = test: Test Example 4: herbicidal effect by soil treatment (Table 19, symbol H); assay type: in vivo, barnyard grass (Echinochloa crus-galli); details: AAH 320 g/ha
How it was run: as §1

southern crabgrass [10] = test: Test Example 5: herbicidal effect by foliage application, plastic box (Table 20, symbol F); assay type: in vivo, southern crabgrass (Digitaria ciliaris); details: foliage application, AAH 320 g/ha, three weeks after application
How it was run: as §3

rice flat sedge = test: Test Example 3: herbicidal effect by foliage application, Wagner pot (Table 18, symbol E); assay type: in vivo, rice flat sedge (Cyperus iria); details: 320 g/ha
How it was run: as §2

wild oat [11] = test: Test Example 5: herbicidal effect by foliage application, plastic box (Table 20, symbol I); assay type: in vivo, wild oat (Avena fatua); details: foliage application, AAH 320 g/ha, three weeks after application
How it was run: as §3

lambsquarters [12] = test: Test Example 5: herbicidal effect by foliage application, plastic box (Table 20, symbol O); assay type: in vivo, lambsquarters (Chenopodium album); details: foliage application, AAH 320 g/ha, three weeks after application
How it was run: as §3

persian speedwell [13] = test: Test Example 5: herbicidal effect by foliage application, plastic box (Table 20, symbol R); assay type: in vivo, Persian speedwell (Veronica persica); details: foliage application, AAH 320 g/ha, three weeks after application
How it was run: as §3

windgrass = test: Test Example 5: herbicidal effect by foliage application, plastic box (Table 20, symbol L); assay type: in vivo, windgrass (Apera spica-venti); details: foliage application, AAH 320 g/ha, three weeks after application
How it was run: as §3

velvetleaf [14] = test: Test Example 5: herbicidal effect by foliage application, plastic box (Table 20, symbol M); assay type: in vivo, velvetleaf (Abutilon theophrasti); details: foliage application, AAH 320 g/ha, three weeks after application
How it was run: as §3

chickweed [15] = test: Test Example 4: herbicidal effect by soil treatment (Table 19, symbol P); assay type: in vivo, common chickweed (Stellaria media); details: AAH 320 g/ha
How it was run: as §1

persian speedwell [16] = test: Test Example 4: herbicidal effect by soil treatment (Table 19, symbol R); assay type: in vivo, Persian speedwell (Veronica persica); details: AAH 320 g/ha
Text: [Test Example 4] Herbicidal Effect Test by Soil Treatment
Sterilized diluvial soil was placed in a plastic box having a length of 21 cm, a width of 13 cm, and a depth of 7 cm. The seeds of each of southern crabgrass, green foxtail, barnyard grass, wild oat, blackgrass, Italian ryegrass, windgrass, velvetleaf, redroot pigweed, lambsquarters, chickweed, false cleavers, persian speedwell, corn, soybean, rice, wheat, beet, and rapeseed were sowed in a spot-like manner and covered with the soil having a thickness of about 1.5 cm. Subsequently, the emulsion agent of the compound of the present invention prepared according to Formulation Example 2 was diluted with water so as to achieve a predetermined herbicide amount, and the diluted emulsion agent was uniformly applied to the surface of the soil with a small-sized spray. The plastic box was placed in a greenhouse at 25° C. to 30° C. for growth of the plants. Three weeks after the herbicide application, the effect of the herbicide on each plant was evaluated according to the criteria of Test Example 1.

green foxtail [17] = test: Test Example 5: herbicidal effect by foliage application, plastic box (Table 20, symbol G); assay type: in vivo, green foxtail (Setaria viridis); details: foliage application, AAH 320 g/ha, three weeks after application
How it was run: as §3

chickweed [18] = test: Test Example 5: herbicidal effect by foliage application, plastic box (Table 20, symbol P); assay type: in vivo, common chickweed (Stellaria media); details: foliage application, AAH 320 g/ha, three weeks after application
How it was run: as §3

Italian ryegrass [19] = test: Test Example 5: herbicidal effect by foliage application, plastic box (Table 20, symbol K); assay type: in vivo, Italian ryegrass (Lolium multiflorum); details: foliage application, AAH 320 g/ha, three weeks after application
How it was run: as §3

redroot pigweed [20] = test: Test Example 5: herbicidal effect by foliage application, plastic box (Table 20, symbol N); assay type: in vivo, redroot pigweed (Amaranthus retroflexus); details: foliage application, AAH 320 g/ha, three weeks after application
How it was run: as §3

blackgrass = test: Test Example 5: herbicidal effect by foliage application, plastic box (Table 20, symbol J); assay type: in vivo, blackgrass (Alopecurus myosuroides); details: foliage application, AAH 320 g/ha, three weeks after application
How it was run: as §3

redroot pigweed [21] = test: Test Example 4: herbicidal effect by soil treatment (Table 19, symbol N); assay type: in vivo, redroot pigweed (Amaranthus retroflexus); details: AAH 320 g/ha
How it was run: as §1

CCCC(=O)Oc1c(C)nn(C)c(=O)c1-c1c(-c2ccc(C(F)(F)F)cc2OC)sc2ccccc12 [1-156]
I: wild oat, herbicidal effect rating (wild oat [1]): 0 (Herbicidal rate of 5% or less (almost no effect))
M: velvetleaf, herbicidal effect rating (velvetleaf [2]): 0 (Herbicidal rate of 5% or less (almost no effect))
herbicidal effect on H (barnyard grass), rating 0-5 (barnyard grass [3]): 3 (Herbicidal rate of 40% or more and less than 70%)
O: lambsquarters, herbicidal effect rating (lambsquarters [4]): 3 (Herbicidal rate of 40% or more and less than 70%)
G: green foxtail, herbicidal effect rating (green foxtail [5]): 0 (Herbicidal rate of 5% or less (almost no effect))
H: barnyard grass, herbicidal effect (barnyard grass [6]): 1 (Herbicidal rate of 5% or more and less than 20%)
K: Italian ryegrass, herbicidal effect rating (Italian ryegrass [7]): 3 (Herbicidal rate of 40% or more and less than 70%)
herbicidal effect on D (Chinese sprangletop), rating 0-5 (Chinese sprangletop): 3 (Herbicidal rate of 40% or more and less than 70%)
F: southern crabgrass, herbicidal effect rating (southern crabgrass [8]): 0 (Herbicidal rate of 5% or less (almost no effect))
H: barnyard grass, herbicidal effect rating (barnyard grass [9]): 0 (Herbicidal rate of 5% or less (almost no effect))
F: southern crabgrass, herbicidal effect (southern crabgrass [10]): 0 (Herbicidal rate of 5% or less (almost no effect))
herbicidal effect on E (rice flat sedge), rating 0-5 (rice flat sedge): 3 (Herbicidal rate of 40% or more and less than 70%)
I: wild oat, herbicidal effect (wild oat [11]): 3 (Herbicidal rate of 40% or more and less than 70%)
O: lambsquarters, herbicidal effect (lambsquarters [12]): 2 (Herbicidal rate of 20% or more and less than 40%)
R: persian speedwell, herbicidal effect (persian speedwell [13]): 3 (Herbicidal rate of 40% or more and less than 70%)
L: windgrass, herbicidal effect (windgrass): 5 (Herbicidal rate of 90% or more (almost completely withered))
M: velvetleaf, herbicidal effect (velvetleaf [14]): 0 (Herbicidal rate of 5% or less (almost no effect))
P: chickweed, herbicidal effect rating (chickweed [15]): 0 (Herbicidal rate of 5% or less (almost no effect))
R: persian speedwell, herbicidal effect rating (persian speedwell [16]): 0 (Herbicidal rate of 5% or less (almost no effect))
G: green foxtail, herbicidal effect (green foxtail [17]): 3 (Herbicidal rate of 40% or more and less than 70%)
P: chickweed, herbicidal effect (chickweed [18]): 5 (Herbicidal rate of 90% or more (almost completely withered))
K: Italian ryegrass, herbicidal effect (Italian ryegrass [19]): 4 (Herbicidal rate of 70% or more and less than 90%)
N: redroot pigweed, herbicidal effect (redroot pigweed [20]): 3 (Herbicidal rate of 40% or more and less than 70%)
J: blackgrass, herbicidal effect (blackgrass): 0 (Herbicidal rate of 5% or less (almost no effect))
N: redroot pigweed, herbicidal effect rating (redroot pigweed [21]): 0 (Herbicidal rate of 5% or less (almost no effect))
